Key:
UACC-62 = experiment: Cytotoxicity against human UACC62 cells; assay type: functional
OVCAR-8 = experiment: Cytotoxicity against human OVCAR8 cells; assay type: functional
COLO 205 = experiment: Cytotoxicity against human COLO205 cells; assay type: functional
IGROV-1 = experiment: Cytotoxicity against human IGROV1 cells; assay type: functional
SNB-75 = experiment: Cytotoxicity against human SNB75 cells; assay type: functional
SF-539 = experiment: Cytotoxicity against human SF539 cells; assay type: functional
NCI-H226 = experiment: Cytotoxicity against human NCI-H226 cells; assay type: functional
[1] = Cytotoxicity against human […] cells; assay type: functional
Malme-3M = experiment: Cytotoxicity against human MALME3M cells; assay type: functional
EKVX = experiment: Cytotoxicity against human EKVX cells; assay type: functional
SK-MEL-2 = experiment: Cytotoxicity against human SK-MEL-2 cells; assay type: functional
NCI-H23 = experiment: Cytotoxicity against human NCI-H23 cells; assay type: functional
HOP-18 = experiment: Cytotoxicity against human HOP18 cells; assay type: functional
SF-268 = experiment: Cytotoxicity against human SF268 cells; assay type: functional
SK-MEL-28 = experiment: Cytotoxicity against human SK-MEL-28 cells; assay type: functional
HOP-92 = experiment: Cytotoxicity against human HOP92 cells; assay type: functional
CAKI-1 = experiment: Cytotoxicity against human CAKI1 cells; assay type: functional
KM12 = experiment: Cytotoxicity against human KM12 cells; assay type: functional
UACC-257 = experiment: Cytotoxicity against human UACC257 cells; assay type: functional
CCRF-CEM = experiment: Cytotoxicity against human CCRF-CEM cells; assay type: functional
HCT-15 = experiment: Cytotoxicity against human HCT15 cells; assay type: functional
NCI-H460 = experiment: Cytotoxicity against human NCI-H460 cells; assay type: functional
ACHN = experiment: Cytotoxicity against human ACHN cells; assay type: functional
RXF 393 = experiment: Cytotoxicity against human RXF393 cells; assay type: functional
KM-20L2 = experiment: Cytotoxicity against human KM20L2 cells; assay type: functional
[2] = Cytotoxicity against human LXFL529 cells; assay type: functional; conditions: LXFL 529
NCI-H522 = experiment: Cytotoxicity against human NCI-H522 cells; assay type: functional
MOLT-4 = experiment: Cytotoxicity against human MOLT4 cells; assay type: functional
NCI-H322M = experiment: Cytotoxicity against human NCI-H322M cells; assay type: functional
LOX IMVI = experiment: Cytotoxicity against human LOXIMVI cells; assay type: functional
[3] = Cytotoxicity against human DMS144 cells; assay type: functional
A549 = experiment: Cytotoxicity against human A549 cells; assay type: functional
SN12C = experiment: Cytotoxicity against human SN12C cells; assay type: functional
U-251 = experiment: Cytotoxicity against human U251 cells; assay type: functional
SW-620 = experiment: Cytotoxicity against human SW620 cells; assay type: functional
DMS-273 = experiment: Cytotoxicity against human DMS273 cells; assay type: functional
SNB-78 = experiment: Cytotoxicity against human SNB78 cells; assay type: functional
[4] = Cytotoxicity against human 786-O cells; assay type: functional; conditions: 786-0
OVCAR-4 = experiment: Cytotoxicity against human OVCAR4 cells; assay type: functional
M19-MEL = experiment: Cytotoxicity against human M19-MEL cells; assay type: functional
XF498 = experiment: Cytotoxicity against human XF498 cells; assay type: functional
[5] = Cytotoxicity against human HCC2996 cells; assay type: functional
M14 = experiment: Cytotoxicity against human M14 cells; assay type: functional
OVCAR-3 = experiment: Cytotoxicity against human OVCAR-3 cells; assay type: functional
[6] = Cytotoxicity against human TK20 cells; assay type: functional
SR = experiment: Cytotoxicity against human SR cells; assay type: functional
HT-29 = experiment: Cytotoxicity against human HT29 cells; assay type: functional
SK-OV-3 = experiment: Cytotoxicity against human SK-OV-3 cells; assay type: functional
DLD-1 = experiment: Cytotoxicity against human DLD1 cells; assay type: functional
OVCAR-5 = experiment: Cytotoxicity against human OVCAR5 cells; assay type: functional
[7] = Cytotoxicity against human HL60(TB) cells; assay type: functional, HL-60(TB); conditions: HL-60
HOP-62 = experiment: Cytotoxicity against human HOP62 cells; assay type: functional
HCT-116 = experiment: Cytotoxicity against human HCT116 cells; assay type: functional
SNB-19 = experiment: Cytotoxicity against human SNB19 cells; assay type: functional
UO-31 = experiment: Cytotoxicity against human UO31 cells; assay type: functional
SK-MEL-5 = experiment: Cytotoxicity against human SK-MEL-5 cells; assay type: functional
SF-295 = experiment: Cytotoxicity against human SF295 cells; assay type: functional
RPMI-8226 = experiment: Cytotoxicity against human RPMI8226 cells; assay type: functional
MDA-MB-435 = experiment: Cytotoxicity against human MDA-MB-435 cells; assay type: functional
BT-549 = experiment: Cytotoxicity against human BT549 cells; assay type: functional
MDA-MB-231 = experiment: Cytotoxicity against human MDA-MB-231 cells; assay type: functional
NCI/ADR-RES = experiment: Cytotoxicity against human NCI/ADR-RES cells; assay type: functional
DU-145 = experiment: Cytotoxicity against human DU145 cells; assay type: functional
K562 = experiment: Cytotoxicity against human K562 cells; assay type: functional
MCF7 = experiment: Cytotoxicity against human MCF7 cells; assay type: functional
[8] = Cytotoxicity against human RXF631 cells; assay type: functional; conditions: RXF 631
Hs-578T = experiment: Cytotoxicity against human HS578T cells; assay type: functional
MDA-N = experiment: Cytotoxicity against human MDAN cells; assay type: functional
PC-3 = experiment: Cytotoxicity against human PC3 cells; assay type: functional
T47D = experiment: Cytotoxicity against human T47D cells; assay type: functional

For `C[C@@H]1[C@]2(O[C@H]3C=C4[C@@H]5CC[C@H]6Cc7nc8c(nc7C[C@]6(C)[C@H]5C[C@@H](O)[C@]4(C)[C@]31O)C[C@@H]1CC[C@H]3C4=CC[C@@H]5[C@H](C)[C@@]6(OC[C@]45C(=O)C[C@]3(O)[C@@]1(C)C8)OC(C)(C)C[C@H]6O)O[C@](C)(CO)C[C@H]2O` [CEPHALOSTATIN 2], the GI50 (UACC-62) was 0.141 nM, the GI50 (OVCAR-8) was 200 nM and the GI50 (COLO 205) was 0.617 nM. It also gave a GI50 (IGROV-1) of 2.57 nM, a GI50 (SNB-75) of 0.1 nM and a GI50 (SF-539) of 0.1 nM. For the same molecule, the GI50 (NCI-H226) was 0.141 nM, the GI50 [1] was 0.339 nM and the GI50 (Malme-3M) was 2.95 nM. The GI50 (EKVX) was 6.17 nM, the GI50 (SK-MEL-2) was 0.288 nM and the GI50 (NCI-H23) was 0.708 nM. It also gave a GI50 (HOP-18) of 14.4 nM, a GI50 (SF-268) of 0.195 nM and a GI50 (SK-MEL-28) of 0.234 nM. The GI50 (HOP-92) was 0.105 nM, the GI50 (CAKI-1) was 0.575 nM and the GI50 (KM12) was 0.371 nM. It also gave a GI50 (UACC-257) of 0.912 nM, a GI50 (CCRF-CEM) of 0.126 nM and a GI50 (HCT-15) of 2.34 nM. For the same molecule, the GI50 (NCI-H460) was 0.126 nM, the GI50 (ACHN) was 2.57 nM and the GI50 (RXF 393) was 0.1 nM. It also gave a GI50 (KM-20L2) of 0.661 nM, a GI50 [2] of 0.138 nM and a GI50 (NCI-H522) of 0.794 nM. For the same molecule, the GI50 (MOLT-4) was 0.12 nM, the GI50 (NCI-H322M) was 28.2 nM and the GI50 (LOX IMVI) was 0.151 nM. It also gave a GI50 [3] of 0.11 nM, a GI50 (A549) of 0.295 nM and a GI50 (SN12C) of 105 nM. The GI50 (U-251) was 0.112 nM, the GI50 (SW-620) was 0.174 nM and the GI50 (DMS-273) was 0.1 nM. The GI50 (SNB-78) was 0.251 nM, the GI50 [4] was 0.141 nM and the GI50 (OVCAR-4) was 17 nM. It also gave a GI50 (M19-MEL) of 331 nM, a GI50 (XF498) of 0.1 nM and a GI50 [5] of 74.1 nM. The GI50 (M14) was 0.219 nM, the GI50 (OVCAR-3) was 347 nM and the GI50 [6] was 20.4 nM. The GI50 (SR) was 0.135 nM, the GI50 (HT-29) was 0.912 nM and the GI50 (SK-OV-3) was 0.457 nM. The GI50 (DLD-1) was 70.8 nM, the GI50 (OVCAR-5) was 14.1 nM and the GI50 [7] was 0.1 nM. It also gave a GI50 (HOP-62) of 0.105 nM, a GI50 (HCT-116) of 0.295 nM and a GI50 (SNB-19) of 2.4 nM. The GI50 (UO-31) was 1.18 nM, the GI50 (SK-MEL-5) was 0.724 nM and the GI50 (SF-295) was 0.1 nM. The GI50 (RPMI-8226) was 0.1 nM.

For `C[C@@H]1[C@]2(O[C@H]3C=C4[C@@H]5CC[C@H]6Cc7nc8c(nc7C[C@]6(C)[C@H]5C[C@@H](O)[C@]4(C)[C@]31O)C[C@@H]1CC[C@H]3C4=CC[C@@H]5[C@H](C)[C@@]6(OC[C@]45C(=O)C[C@@H]3[C@@]1(C)C8)OC(C)(C)C[C@H]6O)O[C@](C)(CO)C[C@H]2O` [CEPHALOSTATIN 1], the GI50 (UACC-62) was 0.316 nM, the GI50 (OVCAR-8) was 60.3 nM and the GI50 (MDA-MB-435) was 0.813 nM. The GI50 (COLO 205) was 1.55 nM, the GI50 (IGROV-1) was 3.98 nM and the GI50 (SNB-75) was 0.1 nM. For the same molecule, the GI50 (SF-539) was 0.151 nM, the GI50 (NCI-H226) was 275 nM and the GI50 [1] was 1.41 nM. It also gave a GI50 (Malme-3M) of 8.13 nM, a GI50 (EKVX) of 5.37 nM and a GI50 (BT-549) of 0.759 nM. The GI50 (SK-MEL-2) was 1.1 nM, the GI50 (NCI-H23) was 550 nM and the GI50 (HOP-18) was 72.4 nM. For the same molecule, the GI50 (SF-268) was 1.1 nM, the GI50 (SK-MEL-28) was 0.617 nM and the GI50 (HOP-92) was 0.661 nM. For the same molecule, the GI50 (CAKI-1) was 1.55 nM, the GI50 (KM12) was 1.86 nM and the GI50 (UACC-257) was 4.27 nM. It also gave a GI50 (CCRF-CEM) of 0.309 nM, a GI50 (HCT-15) of 4.07 nM and a GI50 (MDA-MB-231) of 1.2 nM. For the same molecule, the GI50 (NCI-H460) was 0.269 nM, the GI50 (ACHN) was 8.13 nM and the GI50 (RXF 393) was 0.1 nM. It also gave a GI50 (KM-20L2) of 1.2 nM, a GI50 [2] of 0.331 nM and a GI50 (NCI-H522) of 120 nM. The GI50 (MOLT-4) was 0.204 nM, the GI50 (NCI/ADR-RES) was 69.2 nM and the GI50 (NCI-H322M) was 91.2 nM. It also gave a GI50 (LOX IMVI) of 0.324 nM, a GI50 [3] of 0.166 nM and a GI50 (A549) of 0.513 nM. For the same molecule, the GI50 (SN12C) was 295 nM, the GI50 (U-251) was 0.182 nM and the GI50 (DU-145) was 53.7 nM. It also gave a GI50 (K562) of 0.617 nM, a GI50 (SW-620) of 0.977 nM and a GI50 (DMS-273) of 0.11 nM. The GI50 (MCF7) was 0.355 nM, the GI50 [8] was 0.309 nM and the GI50 (SNB-78) was 0.776 nM. It also gave a GI50 [4] of 0.17 nM, a GI50 (OVCAR-4) of 38.9 nM and a GI50 (M19-MEL) of 617 nM. The GI50 (Hs-578T) was 0.112 nM, the GI50 (XF498) was 0.724 nM and the GI50 [5] was 95.5 nM. The GI50 (M14) was 0.955 nM, the GI50 (OVCAR-3) was 70.8 nM and the GI50 [6] was 33.9 nM. It also gave a GI50 (SR) of 0.209 nM, a GI50 (HT-29) of 2.82 nM and a GI50 (SK-OV-3) of 1.02 nM. It also gave a GI50 (DLD-1) of 41.7 nM, a GI50 (MDA-N) of 1.86 nM and a GI50 (PC-3) of 0.288 nM. The GI50 (OVCAR-5) was 13.2 nM, the GI50 [7] was 0.355 nM and the GI50 (HOP-62) was 0.24 nM. The GI50 (HCT-116) was 0.692 nM, the GI50 (SNB-19) was 4.57 nM and the GI50 (UO-31) was 0.617 nM. The GI50 (SK-MEL-5) was 2.34 nM, the GI50 (SF-295) was 0.123 nM and the GI50 (T47D) was 245 nM. The GI50 (RPMI-8226) was 0.107 nM.
